# From patent US7951562B2, “Method for glycosylating hydroxylysine residues in polypeptides or peptides” (Oulun Yliopisto, priority 2000, dated 2011)
# Where “and” joins values, the source holds several entries; their conditions need not be identical. Equal entries are not always repeated.
# B1: C. elegans LH: protein produced from Caenorhabditis elegans lysyl hydroxylase cDNA (amino acids 14-730) (protein)
# chain: LLATTITDLPELVVVTVATENTDGLKRLLESAKAFDINIEVLGLGEKWNGGDTRIEQGGGQKIRILSDWIEKYKDASDTMIMFVDAYDVVFNADSTTILRKFFEHYSEKRLLFGAEPFCWPDQSLAPEYPIVEFGKRFLNSGLFMGYGPEMHKILKLKSVEDKDDDQLYYTMIYLDEKLRKELNMDLDSMSKIFQNLNGVIEDVELQFKEDGTPEAYNAAYNTKPLIVHGNGPSKSHLNYLGNYLGNRWNSQLGCRTCGLEVKESEEVPLIALNLFISKPIPFIEEVLQKIAEFDYPKEKIALYIYNNQPFSIKNIQDFLQKHGKSYYTKRVINGVTEIGDREARNEAIEWNKARNVEFAFLMDGDAYFSEPKVIKDLIQYSKTYDVGIIAPMIGQPGKLFTNFWGAIAANGYYARSEDYMAIVKGNRVGYWNVPFITSAVLFNKEKLEAMKDAYSYNKNLDPDMSMCKFARDNGHFLYIDNEKYYGFLIVSDEYAETVTEGKWHPEMWQIFENRELWEARYIHPGYHKIMEPEHVVDQACPDVYDFPLMSERFCEELIEEMEGFGRWSDGSNNDKRLAGGYENVPTRDIHMNQVGFERQWLYFMDTYVRPVQEKTFIGYYHQPVESNMMFVVRYKPEEQPSLRPHHDASTFSIDIALNKKGRDYEGGGVRYIRYNCTVPADEVGYAMMFPGRLTHLHEGLATTKGTRYIMVSFINP
# modifications: Caenorhabditis elegans
# B2: LH2b: recombinant human lysyl hydroxylase isoform 2, alternatively spliced form b (protein, listed as Homo sapiens)
# chain: MGGCTVKPQLLLLALVLHPWNPCLGADSEKPSSIPTDKLLVITVATKESDGFHRFMQSAKYFNYTVKVLGQGEEWRGGDGINSIGGGQKVRLMKEVMEHYADQDDLVVMFTECFDVIFAGGPEEVLKKFQKANHKVVFAADGILWPDKRLADKYPVVHIGKRYLNSGGFIGYAPYVNRIVQQWNLQDNDDDQLFYTKVYIDPLKREAINITLDHKCKIFQTLNGAVDEVVLKFENGKARAKNTFYETLPVAINGNGPTKILLNYFGNYVPNSWTQDNGCTLCEFDTVDLSAVDVHPNVSIGVFIEQPTPFLPRFLDILLTLDYPKEALKLFIHNKEVYHEKDIKVFFDKAKHEIKTIKIVGPEENLSQAEARNMGMDFCRQDEKCDYYFSVDADVVLTNPRTLKILIEQNRKIIAPLVTRHGKLWSNFWGALSPDGYYARSEDYVDIVQGNRVGVWNVPYMANVYLIKGKTLRSEMNERNYFVRDKLDPDMALCRNAREMTLQREKDSPTPETFQMLSPPKGVFMYISNRHEFGRLLSTANYNTSHYNNDLWQIFENPVDWKEKYINRDYSKIFTENIVEQPCPDVFWFPIFSEKACDELVEEMEHYGKWSGGKHHDSRISGGYENVPTDDIHMKQVDLENVWLDFIREFIAPVTLKVFAGYYTKGFALLNFVVKYSPERQRSLRPHHDASTFTINIALNNVGEDFQGGGCKFLRYNCSIESPRKGWSFMHPGRLTHLHEGLPVKNGTRYIAVSFIDP
# modifications: His6 tag; CDS (1)..(2277)
# notes: recombinant human lysyl hydroxylase isoform 2, alternatively spliced form b
# Assays:
# Type in all cases: biochemical
# [1] = target: T1, GT activity of the protein produced in E. coli cells with human LH3 cDNA (Homo sapiens, UniProt O60568); assay: Effect of imidazole on GT activity of protein produced in E. coli with human LH3 cDNA
# T1 construct: made in house; host or cells: E. coli XL1-Blue (pQE30)
# T1 sequence (O60568 25-738): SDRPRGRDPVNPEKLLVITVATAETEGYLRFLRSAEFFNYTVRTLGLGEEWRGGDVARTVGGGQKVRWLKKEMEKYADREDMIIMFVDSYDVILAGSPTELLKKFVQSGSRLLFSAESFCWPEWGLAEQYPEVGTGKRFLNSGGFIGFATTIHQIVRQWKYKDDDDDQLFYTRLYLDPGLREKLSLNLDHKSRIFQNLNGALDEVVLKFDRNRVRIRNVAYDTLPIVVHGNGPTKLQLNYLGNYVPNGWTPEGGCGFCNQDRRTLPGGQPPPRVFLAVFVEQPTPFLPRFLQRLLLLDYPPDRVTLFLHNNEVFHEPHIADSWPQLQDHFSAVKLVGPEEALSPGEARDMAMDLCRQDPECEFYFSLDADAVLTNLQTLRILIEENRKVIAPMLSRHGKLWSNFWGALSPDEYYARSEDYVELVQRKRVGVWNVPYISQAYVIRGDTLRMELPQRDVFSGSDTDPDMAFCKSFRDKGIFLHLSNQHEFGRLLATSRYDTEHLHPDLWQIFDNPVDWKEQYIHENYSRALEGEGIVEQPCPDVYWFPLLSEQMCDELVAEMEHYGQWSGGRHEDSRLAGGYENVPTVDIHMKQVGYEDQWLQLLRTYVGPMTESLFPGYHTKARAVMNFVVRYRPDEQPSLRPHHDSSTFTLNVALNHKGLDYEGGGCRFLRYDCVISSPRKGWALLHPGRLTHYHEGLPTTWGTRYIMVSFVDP
# Description: (§1) PFastBacI constructs for human LH1, LH2a, LH2b and LH3 were cleaved with BamHI and Hind III restriction enzymes and coding regions were subcloned into same site in E. coli expression vector pQE30 containing (His)6 tag at the amino terminus. Insert for C. elegans LH (corresponding to amino acids 14-730 in cDNA) was generated by PCR and ligated into SacI-PstI site of pOE30 vector. Constructs were transformed into E. coli XL1-Blue strain. Cultures were grown to OD600 of 0.6 at 37° C. Protein expression was induced by adding 1 mM IPTG and incubation was proceed at 30° C. for 5 hours. Cells were harvested and stored at −20° C. For activity measurements cell pellet was suspended to lysis buffer (0.4 M NaCl, 0.5% Nonident and 20 mM Tris-HCl pH 7.8, at 20° C.) and incubated in the presence of lysozyme (50 μg/ml), DNAase (10 μg/ml) and RNAase (10 μg g/ml) at room temperature for 30 minutes. Lysis was completed by sonication. Cell debris was pelleted and supernatant was used in the measurements.
# (§2) GT and GGT activities were measured by a method based on the transfer of radioactively (tritium)-labeled sugar from UDP-sugar to hydroxylysyl or galactosylhydroxylysyl residues in a calf skin gelatin substrate, respectively (Myllylä et al. 1975). The specific detection of the reaction products was performed after alkaline hydrolysis.
# [2] = target: T2, GGT activity of His-tagged LH3 (Homo sapiens, UniProt O60568); assay: Effect of imidazole on GGT activity of His-tagged LH3 from Sf9 cells
# T2 construct: human LH1 signal peptide (N, cleaved yes); made in house; host or cells: Sf9 insect cells, baculovirus (pFastBacI, BAC-TO-BAC)
# T2 sequence (O60568 25-738): T1 sequence (O60568 25-738)
# Description: (§3) LH activity was assayed by a method based on the hydroxylation-coupled decarboxylation of 2-oxo(1-^14C)glutarate (Kivirikko and Myllylä 1982), synthetic peptide […] was used as a substrate. GGT activity was assayed as described elsewhere (Myllylä et al. 1975). The method is based on the transfer of radioactively (tritium) labelled glucose from UDP-glucose to galactosylhydroxylysyl residues in calf skin gelatin substrate and on the specific assay of the product of the enzyme reaction after alkaline hydrolysis.
# (§4) LH3 was expressed in Sf9 cells as a protein with His-tag at the amino-terminus. This enabled us to use nickel column in the purification of the protein from the cell extract of insect cells, because nickel-charged agaroses are developed for the purification of recombinant proteins containing a polyhistidine (6×His) as a tag. […] No lysyl hydroxylase activity could be detected in the eluate, however. We have determined that imidazole is a potent inhibitor of lysyl hydroxylase activity. […] Imidazole in the concentration of 100 mM and 10 mM inactivated lysyl hydroxylase activity by 55% and 20%, respectively.
# [3] = target: T3, GGT activity of the protein produced in E. coli cells with human LH3 cDNA (Homo sapiens, UniProt O60568); assay: Effect of imidazole on GGT activity of protein produced in E. coli with human LH3 cDNA
# T3 construct: made in house; host or cells: E. coli XL1-Blue (pQE30)
# T3 sequence (O60568 25-738): T1 sequence (O60568 25-738)
# Description: as §1, §2
# [4] = target: T4, lysyl hydroxylase activity of His-tagged LH3 (Homo sapiens, UniProt O60568); assay: Inactivation of lysyl hydroxylase activity by imidazole
# T4 construct: human LH1 signal peptide (N, cleaved yes); made in house; host or cells: Sf9 insect cells, baculovirus
# T4 sequence (O60568 25-738): T1 sequence (O60568 25-738)
# Description: as §3, §4
# [5] = test system: galactosylhydroxylysyl residues in a calf skin gelatin substrate; assay: GGT activity of recombinant proteins expressed in E. coli; conditions: E. coli supernatant, 5 h IPTG induction, stored at −70° C. overnight; listed as LH cDNA
# [6] = test system: hydroxylysyl residues in a calf skin gelatin substrate; assay: GT activity of recombinant proteins expressed with baculovirus vector in Sf9 cells; conditions: baculovirus vector in insect cells, not shown
# Description: Baculovirus transfer vector pFastBacI in the BAC-TO-BAC™ expression system was used to produce LH3 protein in Sf9 cells. The cDNA construct is in Example 1. The recombinant protein contains the His tag at the amino terminus after signal peptide cleavage. The cells were homogenized as described elsewhere (Valtavaara et al. 1997).
# as §2
# [7] = test system: synthetic peptide IKGIKGIKG; assay: LH activity of human LH isoforms expressed in E. coli; conditions: E. coli expression system, data not shown
# Text: The lysyl hydroxylase activity can be assayed by a method based on the hydroxylation-coupled decarboxylation of 2-oxo(1-^14C)glutarate (Kivirikko and Myllylä 1982), synthetic peptide […] was used as a substrate.
# as §1
# [8] = test system: hydroxylysyl residues in a calf skin gelatin substrate; assay: GT (galactosyltransferase) activity of recombinant proteins expressed in E. coli; conditions: E. coli cell supernatant, FIG. 12
# Description: The galactosyltransferase activity can be assayed as described in Myllylä et al. (1975). The method is based on the transfer of radioactively (tritium) labelled galactose from UDP-galactose to hydroxylysyl residues in calf skin gelatin substrate and on the specific assay of the product of the enzyme reaction after alkaline hydrolysis.
# [9] = test system: galactosylhydroxylysyl residues in calf skin gelatin substrate; assay: GGT (glucosyltransferase) activity of recombinant proteins expressed in Sf9 insect cells; conditions: Sf9 cells, 72 hours after infection
# Text: The glucosyltransferase activity can be assayed as described in Myllylä et al. (1975). The method is based on the transfer of radioactively (tritium) labelled glucose from UDP-glucose to galactosylhydroxylysyl residues in calf skin gelatin substrate and on the specific assay of the product of the enzyme reaction after alkaline hydrolysis.
# Commercially available baculovirus transfer vector pFastBacI in the BAC-TO-BAC™ expression system (Life technologies, Inc.) was modified to contain human LH1 signal peptide (Hautala et al., 1992) and His6 tag, and BamHI restriction site for insertion of the desired cDNA, nucleotides 289-2455 of LH3 cDNA (SEQ ID NO 6) (Valtavaara et al., 1998). The construct was confirmed by sequencing. The recombinant protein contains His tag at the amino-terminus after signal peptide cleavage. Insect cells were harvested 0-72 hours after infection and homogenized according to the protocol described earlier (Valtavaara et al., 1997).
# Human LH1 signal peptide and His6 tag was inserted to the cDNA constructs of LH1 and LH2. The baculovirus transfer vector pFastBacI was modified so that human LH1 signal sequence followed by nine nucleotides of the amino-terminal end was ligated to the His6 tag followed by nucleotides for BamHI restriction site. The human cDNA sequence (LH1 or LH2) (SEQ ID NO 21, 23 and 25) starting from the likely amino-terminal end of the molecule was ligated to the BamHI site of the construct. Two expression constructs were generated for LH2, LH2a and LH2b (SEQ ID NO 23 and 25), both of them covered the nucleotides from 76 to 2267 (Valtavaara et al., 1997). The LH2b construct contained also the alternatively spliced exon sequence (Valtavaara 1999; Yeowell and Walker, 1999) between nucleotides 1500 and 1501 (SEQ ID NO 25). The constructs were confirmed by sequencing. Insect cells were grown and homogenized as described above.
# as §3
molecule,measurement,setting,value
c1c[nH]cn1 [imidazole],GT activity,[1]; 10 mM imidazole (no inhibitor: 760.000),795.000 dpm/mg
same,GT activity,[1]; 100 mM imidazole (no inhibitor: 760.000),605.000 dpm/mg
same,inhibition at 300000 µM,[1]; 300 mM imidazole,60%
same,GT activity,[1]; 300 mM imidazole (no inhibitor: 760.000),310.000 dpm/mg
same,effect on GGT activity,[2]; 10 mM to 100 mM imidazole,no effect
same,inhibition at 300000 µM,[2]; 300 mM imidazole,25%
same,GGT activity,[3]; 10 mM imidazole (no inhibitor: 667.000),583.000 dpm/mg
same,GGT activity,[3]; 100 mM imidazole (no inhibitor: 667.000),599.000 dpm/mg
same,inhibition at 300000 µM,[3]; 300 mM imidazole,~30%
same,GGT activity,[3]; 300 mM imidazole (no inhibitor: 667.000),459.000 dpm/mg
same,inactivation of lysyl hydroxylase activity,[4]; 10 mM imidazole,20%
same,inactivation of lysyl hydroxylase activity,[4]; 100 mM imidazole,55%
same,inactivation of lysyl hydroxylase activity,"[4]; 300 mM imidazole, 2 h on ice",almost complete inactivation
B1,GGT enzyme activity,[5],30.700 dpm/mg soluble protein and 21.000 dpm/mg soluble protein
B2,generation of GT activity,[6],did not generated GT activity
same,LH activity,[7],no LH activity can be found
same,generation of GT activity,[8],LH3 was the only one being able to generate GT activity
same,GGT activity in cell lysates,[9],none of these recombinant proteins had detectable GGT activity
